Like-named read-outs stand apart in the source and are kept apart here. Bounds are passed on as bounds.

This is an account of results in publication PMC9701179, “New tricyclic systems as photosensitizers towards triple negative breast cancer cells” (Archives of Pharmacal Research, 2022).

Assay [1] deals with MDA-MB-231 cells. Nature of the assay: MTT cytotoxicity/photocytotoxicity test on human TNBC MDA-MB-231 cells. The settings on record: Homo sapiens. In kind it is cell-based. As to the method:
The irradiation device used for the irradiation of cell cultures during the assays was a black box equipped with two Philips UVA lamps with an irradiance of 17 mW cm^−2 and a centered emission peak at 365 nm; UVA irradiance was measured using a Waldmann Variocontrol radiometer, equipped with a UVA sensor. The box was maintained at room temperature inside with a fan and the multiwell plates were placed onto a water-refrigerated metal block.
Human triple negative (TNBC) breast MDA-MB-231 carcinoma cells were obtained from American Type Culture Collection (ATCC, Rockville, MD, USA). Human embryonic kidney HEK293 cells were obtained from the European Collection of Cell Cultures (ECACC, Salisbury, UK). Cell lines were maintained in the logarithmic phase at 37 °C in a 5% CO2 atmosphere using the following culture media containing 10% foetal calf serum (Euroclone, Milan, Italy), antibiotics (50 units/mL penicillin and 50 μg/mL streptomycin) and 2 mM l-glutamine: (i) RPMI-1640 medium (Euroclone, Milan, Italy) for MDA-MB-231 4 cells; (ii) DMEM (Euroclone, Milan, Italy) for HEK293 cells.
Cells (5–8 × 10^3 cells/well, dependent upon the growth characteristics of the cell line) were seeded in 96-well microplates in growth medium (100 μL). After 24 h, the medium was removed and replaced with a fresh one containing the compound to be studied at the appropriate concentration. Triplicate cultures were established for each treatment. For photocytotoxicity studies, after 1 h of incubation the medium was replaced with PBS and cells were treated with 2.0 J cm^−2 of UVA light. After irradiation, PBS was replaced with complete proliferation media. For pre-irradiation studies, instead, compounds in PBS were irradiated with 2.0 J cm^−2 of UVA light and subsequently cells were treated with pre-irradiated solutions. Following 24 h, each well was treated with 10 μL of a 5 mg/mL MTT saline solution, and following 5 h of incubation, 100 μL of a sodium dodecyl sulfate (SDS) solution in HCl 0.01 M were added. After an overnight incubation, cell growth inhibition was detected by measuring the absorbance of each well at 570 nm using a Bio-Rad 680 microplate reader. Mean absorbance for each drug dose was expressed as a percentage of the control untreated well absorbance and plotted against drug concentration. IC50 values, the drug concentrations that reduce the mean absorbance at 570 nm to 50% of those in the untreated control wells, were calculated by the four-parameter logistic (4-PL) model. Evaluation was based on means from at least four independent experiments.
The new synthetized pyrrolo[1,2-h][1,7]naphthyridinones 7 and pyrido[2,3-c]pyrrolo[1,2-a]azepinones 8 were screened for their cytotoxicity (in the dark) and photocitotoxicity (upon UVA light irradiation at 2.0 J/cm^2) profile on human TNBC cells, MDA-MB-231. The cytotoxicity/photocytotoxicity parameters, expressed in terms of IC50 values obtained by MTT test after 24 h of drug-exposure, are listed in Table 2.

Assay [2] deals with MDA-MB-231 cells. Nature of the assay: Intracellular ROS production (CM-H2DCFDA) under UVA. In kind it is cell-based, human. The settings on record: MDA-MB-231, 25 µM, 90 min, UVA 2.0 J/cm^2; antimycin 3 µM positive control. As for the experimental part: The production of ROS was measured in MDA-MB-231 cells (10^4 per well) grown for 24 h in a 96-well plate in RPMI medium without phenol red (Merk, Germany). Cells were then washed with PBS and loaded with 10 μM 5-(and-6)-chloromethyl-2′,7′-dichlorodihydrofluorescein diacetate acetyl ester (CM–H2DCFDA) (Molecular Probes-Invitrogen, Eugene, OR) for 45 min, in the dark. Afterwards, cells were washed with PBS and incubated with tested compounds (25 µM) for 90 min and after that exposed to UVA light (2.0 J/cm^2). Fluorescence increase was estimated utilizing the wavelengths of 485 nm (excitation) and 527 nm (emission) in a VICTOR X3 (PerkinElmer, USA) plate reader. Antimycin (3 μM, Merk), a potent inhibitor of Complex III in the electron transport chain, was used as positive control.
ROS production under light (UVA, 2.0 J/cm^2) was evaluated in MDA-MB-231 cell samples treated with increasing concentrations of tested compounds or antimycin, a potent inhibitor of Complex III of mitochondria electron chain, used as a positive control under the same experimental conditions (Fig. 4).
Fig. 4 Cellular ROS production (A) and total thiol redox state (B). A Effect of UVA activated tested compounds (25 µM) or antimycin (3 µM) on hydrogen peroxide formation in MDA-MB-231 cancer cells. B Sulfhydryl content in MDA-MB-231 cancer cells incubated for 24 h with UVA activated tested compounds. The sulfhydryl group amount was determined by the DTNB assay. Error bars indicate S.D

Assay [3] relates to MDA-MB-231 cells. Nature of the assay: Mitochondrial membrane potential (Mito-ID kit). Format: cell-based, human. Particulars: MDA-MB-231, UVA 2.0 J/cm^2; CCCP positive control. As to the method:
The ΔΨ was assayed using the Mito-ID® Membrane Potential Kit according to the manufacturer’s instructions (Enzo Life Sciences, Farmingdale, NY, USA) as previously described. Briefly, MDA-MB-231 cells (8 × 10^3 per well) were seeded in 96-well plates; after 24 h, cells were washed with PBS and loaded with Mito-ID Detection Reagent for 30 min at 37 °C in the dark. Afterwards, cells were incubated with increasing concentrations of tested compounds for 90 min and after that exposed to UVA light (2.0 J/cm^2). CCCP (Carbonyl cyanide 3-chlorophenyl-hydrazone) was used as positive control. Fluorescence intensity was estimated using a VICTOR X3 (PerkinElmer, USA) plate reader at 490 (excitation) and 590 nm (emission).
Induction of ROS production can in turn prompt the collapse of mitochondrial membrane potential as well as loss of mitochondrial integrity and functioning. […] MDA-MB-231 TNBC cells were treated with tested compounds upon UVA irradiation and the percentage of cells with hypopolarized mitochondrial membrane potential was determined fluorometrically by means of the Mito-ID® Membrane Potential Kit.
Fig. 5 Effects on mitochondrial membrane potential (A) and cell death induction (B) in human breast MDA-MB-231 cancer cells. A Cells were treated with 7h and 8e and stained with TMRM (10 nM). Fluorescence was estimated at 490 nm (excitation) and 590 nm (emission). Data are the means of five independent experiments. Error bars indicate S.D. * P < 0.05. B Cells were treated with concentrations of 7h and 8e equal to IC50 for 24 h and stained with the fluorescent dyes Hoechst 33342 and PI

Where [4] appears, read: MDA-MB-231, in the dark, 1 h pre-treatment, recovered for total 24 h, read-out: Dark IC50 (µM) ± S.D.
Setting [5] is: light or radiation study, MDA-MB-231, 1 h pre-treatment, UVA 2.0 J/cm^2, recovered for total 24 h, read-out: UVA (2.0 J/cm^2) IC50 (µM) ± S.D.

On to `CCOC(=O)c1ccc2n1CCc1cc(S(=O)(=O)c3ccccc3)c(=O)n(C)c1-2` [Compound 7e, Ethyl 3-(benzenesulfonyl)-1-methyl-2-oxo-1,2,5,6-tetrahydropyrrolo[1,2-h][1,7]naphthyridine-8-carboxylate], for which the IC50 in the assay with MDA-MB-231 cells [1] (setting [4]) and with MDA-MB-231 cells [1] (setting [5]) was greater than 50 µM throughout. Also, the “Cellular ROS production (hydrogen peroxide formation)” value with MDA-MB-231 cells [2] is on record as “hardly effective in inducing any ROS basal level production increase”. Further, the “Cells with depolarized mitochondria (mitochondrial membrane potential)” value in the assay on MDA-MB-231 cells [3] is recorded as “did not induce a substantial change in mitochondrial membrane potential”.

Consider `CC(C)OC(=O)c1ccc2n1CCCc1cc(S(=O)(=O)c3ccccc3)c(=O)n(C)c1-2` [Compound 8d, Propan-2-yl 3-(benzenesulfonyl)-1-methyl-2-oxo-1,5,6,7-tetrahydro-2H-pyrido[2,3-c]pyrrolo[1,2-a]azepine-9-carboxylate], for which the IC50 in the assay with MDA-MB-231 cells [1] (setting [4]) and in the assay on MDA-MB-231 cells [1] (setting [5]) was greater than 50 µM in each case. Besides, the “Cellular ROS production (hydrogen peroxide formation)” value in the assay on MDA-MB-231 cells [2] was “hardly effective in inducing any ROS basal level production increase”. The “Cells with depolarized mitochondria (mitochondrial membrane potential)” value in the assay with MDA-MB-231 cells [3] was “did not induce a substantial change in mitochondrial membrane potential”.
